# Tested on: Mycosphaerella graminicola (Septoria tritici—SEPTTR)
# Assay: In vitro fungal growth inhibition, Mycosphaerella graminicola (SEPTTR)
# Type: cell-based
# Conditions: Zymoseptoria tritici; 25 ppm in growth medium; read-out: SEPTTR in vitro Growth Inhibition
row,Structure (SMILES),inhibition at 25 ppm [%]
1,COc1ccnc(C(=O)Nc2cc(C)c(OC(=O)c3ccc(C(F)(F)F)cc3)c(C)c2)c1O [Compound 457],< 80
2,COc1ccnc(C(=O)N[C@H]2COC(=O)[C@H](Cc3ccccc3)[C@@H](OC(=O)NC(C)C)[C@H](C)OC2=O)c1O [Compound 399],< 80

# Same assay, conditions: Zymoseptoria tritici; 25 ppm in the growth medium; read-out: SEPTTR in vitro Growth Inhibition
row,Structure (SMILES),inhibition at 25 ppm [%]
1,CC1(C)CC(NC(=O)c2ccncc2O)CC(C)(C)C1 [Compound 505],< 80
2,COc1ccnc(C(=O)NC2CC(C)(C)/C=C\CC(C)(C)C2)c1OC(C)=O (centres unmarked) [Compound 580],< 80

# Tested on: Rhizoctonia solani (RHIZSO)
# Assay: microbe, parasite or virus in culture
# Type: cell-based
# Conditions: Rhizoctonia solani, read-out: RHIZSO in vitro Growth Inhibition
row,Structure (SMILES),inhibition at 25 ppm [%]
1,CC1(C)CC(NC(=O)c2ccncc2O)CC(C)(C)C1 [Compound 505],< 80
2,COc1ccnc(C(=O)Nc2cc(C)c(OC(=O)c3ccc(C(F)(F)F)cc3)c(C)c2)c1O [Compound 457],< 80
3,COc1ccnc(C(=O)N[C@H]2COC(=O)[C@H](Cc3ccccc3)[C@@H](OC(=O)NC(C)C)[C@H](C)OC2=O)c1O [Compound 399],< 80
4,COc1ccnc(C(=O)NC2CC(C)(C)/C=C\CC(C)(C)C2)c1OC(C)=O (centres unmarked) [Compound 580],< 80

# Tested on: Phytophthora infestans (PHYTIN)
# Assay: microbe, parasite or virus in culture
# Type: cell-based
# Conditions: Phytophthora infestans, read-out: PHYTIN in vitro Growth Inhibition
row,Structure (SMILES),inhibition at 25 ppm [%]
1,CC1(C)CC(NC(=O)c2ccncc2O)CC(C)(C)C1 [Compound 505],< 80
2,COc1ccnc(C(=O)Nc2cc(C)c(OC(=O)c3ccc(C(F)(F)F)cc3)c(C)c2)c1O [Compound 457],< 80
3,COc1ccnc(C(=O)N[C@H]2COC(=O)[C@H](Cc3ccccc3)[C@@H](OC(=O)NC(C)C)[C@H](C)OC2=O)c1O [Compound 399],< 80
4,COc1ccnc(C(=O)NC2CC(C)(C)/C=C\CC(C)(C)C2)c1OC(C)=O (centres unmarked) [Compound 580],< 80

# Tested on: Leptosphaeria nodorum—LEPTNO
# Assay: Glume Blotch of Wheat, in vivo whole plant, 24 Hour Protectant
# Conditions: 100 ppm spray, wheat, 24 hour protectant; control of fungal infection vs untreated plants
row,Structure (SMILES),LEPTNO in vivo 1 Day Protectant
1,COc1ccnc(C(=O)N[C@H]2COC(=O)[C@H](Cc3ccccc3)[C@@H](OC(=O)NC(C)C)[C@H](C)OC2=O)c1O [Compound 399],+ +

# Same assay, conditions: Leptosphaeria; 100 ppm spray, wheat, 24 hour protectant; control of fungal infection vs untreated plants; read-out: LEPTNO in vivo 1 Day Protectant
row,Structure (SMILES),pest or weed control at 100 ppm [%]
1,COc1ccnc(C(=O)Nc2cc(C)c(OC(=O)c3ccc(C(F)(F)F)cc3)c(C)c2)c1O [Compound 457],< 25

# Same assay, conditions: Leptosphaeria; wheat plants sprayed at 100 ppm, inoculated after 24 hours; control of fungal infection vs untreated plants; read-out: LEPTNO in vivo 1 Day Protectant
row,Structure (SMILES),pest or weed control at 100 ppm [%]
1,CC1(C)CC(NC(=O)c2ccncc2O)CC(C)(C)C1 [Compound 505],< 25

# Same assay, conditions: wheat plants sprayed at 100 ppm, inoculated after 24 hours; control of fungal infection vs untreated plants
row,Structure (SMILES),LEPTNO in vivo 1 Day Protectant
1,COc1ccnc(C(=O)NC2CC(C)(C)/C=C\CC(C)(C)C2)c1OC(C)=O (centres unmarked) [Compound 580],+ +

# Tested on: Stagonospora nodorum (Leptosphaeria nodorum—LEPTNO)
# Assay: In vitro fungal growth inhibition, Stagonospora nodorum (LEPTNO)
# Type: cell-based
# Conditions: Leptosphaeria; 25 ppm in growth medium; read-out: LEPTNO in vitro Growth Inhibition
row,Structure (SMILES),inhibition at 25 ppm [%]
1,COc1ccnc(C(=O)Nc2cc(C)c(OC(=O)c3ccc(C(F)(F)F)cc3)c(C)c2)c1O [Compound 457],> 80
2,COc1ccnc(C(=O)N[C@H]2COC(=O)[C@H](Cc3ccccc3)[C@@H](OC(=O)NC(C)C)[C@H](C)OC2=O)c1O [Compound 399],< 80

# Same assay, conditions: Leptosphaeria; 25 ppm in the growth medium; read-out: LEPTNO in vitro Growth Inhibition
row,Structure (SMILES),inhibition at 25 ppm [%]
1,CC1(C)CC(NC(=O)c2ccncc2O)CC(C)(C)C1 [Compound 505],< 80
2,COc1ccnc(C(=O)NC2CC(C)(C)/C=C\CC(C)(C)C2)c1OC(C)=O (centres unmarked) [Compound 580],< 80

# Tested on: Septoria tritici—SEPTTR
# Assay: Leaf Blotch of Wheat, in vivo whole plant, 24 Hour Protectant
# Conditions: Zymoseptoria tritici, 24 h, 100 ppm spray, wheat, 24 hour protectant; control of fungal infection vs untreated plants; read-out: SEPTTR in vivo 1 Day Protectant
row,Structure (SMILES),pest or weed control at 100 ppm [%]
1,COc1ccnc(C(=O)Nc2cc(C)c(OC(=O)c3ccc(C(F)(F)F)cc3)c(C)c2)c1O [Compound 457],25 to 74
2,COc1ccnc(C(=O)N[C@H]2COC(=O)[C@H](Cc3ccccc3)[C@@H](OC(=O)NC(C)C)[C@H](C)OC2=O)c1O [Compound 399],25 to 74

# Same assay, conditions: Zymoseptoria tritici, 24 h, wheat plants sprayed at 100 ppm, inoculated after 24 hours; control of fungal infection vs untreated plants; read-out: SEPTTR in vivo 1 Day Protectant
row,Structure (SMILES),pest or weed control at 100 ppm [%]
1,CC1(C)CC(NC(=O)c2ccncc2O)CC(C)(C)C1 [Compound 505],< 25
2,COc1ccnc(C(=O)NC2CC(C)(C)/C=C\CC(C)(C)C2)c1OC(C)=O (centres unmarked) [Compound 580],25 to 74

# Tested on: Ustilago maydis (USTIMA)
# Assay: microbe, parasite or virus in culture
# Type: cell-based
# Conditions: Mycosarcoma maydis, read-out: USTIMA in vitro Growth Inhibition
row,Structure (SMILES),inhibition at 25 ppm [%]
1,CC1(C)CC(NC(=O)c2ccncc2O)CC(C)(C)C1 [Compound 505],< 80
2,COc1ccnc(C(=O)Nc2cc(C)c(OC(=O)c3ccc(C(F)(F)F)cc3)c(C)c2)c1O [Compound 457],< 80
3,COc1ccnc(C(=O)N[C@H]2COC(=O)[C@H](Cc3ccccc3)[C@@H](OC(=O)NC(C)C)[C@H](C)OC2=O)c1O [Compound 399],< 80
4,COc1ccnc(C(=O)NC2CC(C)(C)/C=C\CC(C)(C)C2)c1OC(C)=O (centres unmarked) [Compound 580],< 80

# Tested on: Puccinia recondita—PUCCRT
# Assay: Brown Rust of Wheat, in vivo whole plant, 24 Hour Protectant
# Conditions: Puccinia; 100 ppm spray, wheat, 24 hour protectant; control of fungal infection vs untreated plants; read-out: PUCCRT in vivo 1 Day Protectant
row,Structure (SMILES),pest or weed control at 100 ppm [%]
1,COc1ccnc(C(=O)Nc2cc(C)c(OC(=O)c3ccc(C(F)(F)F)cc3)c(C)c2)c1O [Compound 457],< 25
2,COc1ccnc(C(=O)N[C@H]2COC(=O)[C@H](Cc3ccccc3)[C@@H](OC(=O)NC(C)C)[C@H](C)OC2=O)c1O [Compound 399],25 to 74

# Same assay, conditions: Puccinia; wheat plants sprayed at 100 ppm, inoculated after 24 hours; control of fungal infection vs untreated plants; read-out: PUCCRT in vivo 1 Day Protectant
row,Structure (SMILES),pest or weed control at 100 ppm [%]
1,CC1(C)CC(NC(=O)c2ccncc2O)CC(C)(C)C1 [Compound 505],< 25
2,COc1ccnc(C(=O)NC2CC(C)(C)/C=C\CC(C)(C)C2)c1OC(C)=O (centres unmarked) [Compound 580],25 to 74

# Tested on: Magnaporthe grisea (Pyricularia oryzae—PYRIOR)
# Assay: microbe, parasite or virus in culture
# Type: cell-based
# Conditions: Pyricularia oryzae, read-out: PYRIOR in vitro Growth Inhibition
row,Structure (SMILES),inhibition at 25 ppm [%]
1,CC1(C)CC(NC(=O)c2ccncc2O)CC(C)(C)C1 [Compound 505],< 80
2,COc1ccnc(C(=O)Nc2cc(C)c(OC(=O)c3ccc(C(F)(F)F)cc3)c(C)c2)c1O [Compound 457],< 80
3,COc1ccnc(C(=O)N[C@H]2COC(=O)[C@H](Cc3ccccc3)[C@@H](OC(=O)NC(C)C)[C@H](C)OC2=O)c1O [Compound 399],< 80
4,COc1ccnc(C(=O)NC2CC(C)(C)/C=C\CC(C)(C)C2)c1OC(C)=O (centres unmarked) [Compound 580],< 80

# Tested on: Phytophthora infestans—PHYTIN
# Assay: whole plant or invertebrate
# Type: in vivo
# Conditions: Phytophthora, in Solanum lycopersicum, 24 h, read-out: PHYTIN in vivo 1 Day Protectant
row,Structure (SMILES),pest or weed control at 100 ppm [%]
1,CC1(C)CC(NC(=O)c2ccncc2O)CC(C)(C)C1 [Compound 505],< 25
2,COc1ccnc(C(=O)Nc2cc(C)c(OC(=O)c3ccc(C(F)(F)F)cc3)c(C)c2)c1O [Compound 457],< 25
3,COc1ccnc(C(=O)N[C@H]2COC(=O)[C@H](Cc3ccccc3)[C@@H](OC(=O)NC(C)C)[C@H](C)OC2=O)c1O [Compound 399],< 25
4,COc1ccnc(C(=O)NC2CC(C)(C)/C=C\CC(C)(C)C2)c1OC(C)=O (centres unmarked) [Compound 580],< 25

# Tested on: Erysiphe graminis—ERYSGT
# Assay: Powdery Mildew of Wheat, in vivo whole plant, 24 Hour Protectant
# Conditions: Erysiphe; 100 ppm spray, wheat, 24 hour protectant; control of fungal infection vs untreated plants; read-out: ERYSGT in vivo 1 Day Protectant
row,Structure (SMILES),pest or weed control at 100 ppm [%]
1,COc1ccnc(C(=O)Nc2cc(C)c(OC(=O)c3ccc(C(F)(F)F)cc3)c(C)c2)c1O [Compound 457],< 25
2,COc1ccnc(C(=O)N[C@H]2COC(=O)[C@H](Cc3ccccc3)[C@@H](OC(=O)NC(C)C)[C@H](C)OC2=O)c1O [Compound 399],< 25

# Same assay, conditions: Erysiphe; wheat plants sprayed at 100 ppm, inoculated after 24 hours; control of fungal infection vs untreated plants; read-out: ERYSGT in vivo 1 Day Protectant
row,Structure (SMILES),pest or weed control at 100 ppm [%]
1,CC1(C)CC(NC(=O)c2ccncc2O)CC(C)(C)C1 [Compound 505],< 25
2,COc1ccnc(C(=O)NC2CC(C)(C)/C=C\CC(C)(C)C2)c1OC(C)=O (centres unmarked) [Compound 580],< 25

# — patent US6706740B2, “Fungicidal heterocyclic aromatic amides and their compositions, methods of use and preparation” (Dow AgroSciences LLC, priority 1999, dated 2004)
